Earlier results, collected in patent publication US7671089B2 (XenoPort, Inc., priority 2004, dated 2010).

What was measured:
[1] = following oral administration
[2] = rats

Row | SMILES | duration time [1] | levels of levodopa [1] | absorption following rectal administration [2]
1 | CC(C)(C)C(=O)Oc1ccc(C[C@H](N)C(=O)O)cc1O [NB-355] | prolonged | low | –
2 | C[C@@](Cc1ccc(O)c(O)c1)(NN)C(=O)O [carbidopa] | – | – | poor
